{"source": "patent US10632106B2", "about": "“Methods of cancer treatment with 2-(1′H-Indole-3′-carbonyl)-thiazole-4-carboxylic acid methyl ester” (Ariagen, Inc., priority 2009, dated 2020)", "type_in_all_cases": "in vivo", "key": {"[1]": {"test_system": "human prostate cancer cell line LNCaP xenografts", "assay": "LNCaP xenograft growth inhibition in nude mice", "details": "20 mg/kg b.w. i.p. once daily", "method": "(§1) All the procedures related to animal handling, care, and the treatment in the study were performed following guidelines approved by an Institutional Animal Care and Use Committee (IACUC) of Crown Bioscience, Inc. (Santa Clara, Calif., USA, a contract research organization we hired) based on the guidance of the Association for Assessment and Accreditation of Laboratory Animal Care (AAALAC). Animals were checked for any effects of tumor growth and drug treatment on normal behavior such as mobility, food and water consumption, body weight gain/loss (gross body weights were measured twice weekly), eye/hair matting, and any other abnormal effect. Death and observed clinical signs were recorded on the basis of the number of animals within each group. Individual animals with a tumor volume exceeding 3,000 mm^3 or animals of a group with a mean tumor volume exceeding 2,000 mm^3 were euthanized. In addition, animals showing signs of severe distress and/or pain, dropping body weight more than 20% from that at the start of treatment, or losing the capability of accessing adequate food or water were humanely sacrificed.\nThe human prostate cancer cell line LNCaP (ATCC, American Type Culture Collection, Manassas, Va., USA) were maintained in vitro as monolayer culture in RPMI-1640 medium supplemented with 10% fetal bovine serum (FBS), 100 U/ml penicillin, 100 μg/ml streptomycin, and 2 mM L-glutamine at 37° C. in an atmosphere of 5% CO2 in air. The tumor cells were routinely subcultured twice a week. The cells growing in an exponential phase were harvested and counted for tumor inoculation.\n(§2) Each mouse was inoculated subcutaneously at the right flank with the LNCaP cells (1×10^7) in 0.1 ml of PBS for tumor development. When a mean tumor volume reached around 150 mm^3, the tumor-bearing mice were divided into homogeneous blocks based on their tumor volumes followed by a randomization of mice in each block into treatment groups (thus minimizing variations in tumor response to treatments due to the differential in initial mean tumor volumes). Each treatment group was consisted of 8 tumor-bearing mice. Vehicle (DMSO) or ITE in the vehicle at specified doses were administered to the mice by either i.p. (intraperitoneal) or p.o. (oral) injection once or twice daily for 28 continuous days as indicated.\n(§3) Tumor volume was measured twice weekly in two dimensions using a caliper and the volume was calculated with a formula of: V=0.5 a×b^2, where a and b are the long and short diameter (in mm) of a tumor, respectively. The tumor volume was then used for calculations of both TGI (Tumor Growth Inhibition) and TGD (Tumor Growth Delay). The TGI was determined by: TGI=ΔT/ΔC×100%, where ΔT was a difference between the mean tumor volume at a specified day of observation and that at the day treatment starts (day 1) for a drug treated group whereas ΔC was the same difference measured for the control group. The TGD was calculated as: TGD=T−C, where T was the time (in days) required for tumors in a drug treated group to reach a predetermined mean tumor volume and C the time (in days) in the control group to reach the same volume. A tumor weight was derived by equating 1,000 mm^3 in volume to 1,000 mg in weight. A net body weight was then derived by subtracting a tumor weight from a corresponding gross body weight with the tumor.\n(§4) Summary statistics, including mean and the standard error of the mean (SEM), are provided for the tumor volume of each group at each time point. Statistical analysis of difference in tumor volume among groups was conducted on a data set either at the best therapeutic time point or at the final dosing day as indicated. The tumor volume data were log-transformed and evaluated using a one-way ANOVA followed by Tukey's test when significance was observed. All data were analyzed using SPSS 16.0 and p<0.05 was considered to be statistically significant."}, "[2]": {"test_system": "human liver cancer cell line HepG2 xenografts", "assay": "HepG2 xenograft growth inhibition in nude mice", "method": "as §1, §2, §3, §4\n(§5) The culture and inoculation of human prostate cancer cell line LNCaP were as described in Example 1. The manipulation for human liver cancer cell line HepG2 (ATCC) was similar as that for LNCaP except that DMEM (instead of RPMI-1640) medium was used, the L-glutamine was not used, and 2×10^6 cells were used for inoculation into female nude mice. The handling of human ovarian cancer cell line OVCAR-3 (ATCC) was the same as that of LNCaP except that the DMEM medium was used and 5×10^6 cells were used for inoculation into female nude mice. […]"}, "[3]": {"test_system": "human ovarian cancer cell line OVCAR-3 xenografts", "assay": "OVCAR-3 xenograft growth inhibition in nude mice", "method": "as §1, §2, §3, §4, §5"}, "[4]": {"details": "80 mg/kg i.p. once daily, at a tumor volume of 800 mm^3"}, "[5]": {"details": "female, nude, mouse, in vivo, 32 day"}}, "data": [{"compound": "CCC(=O)c1csc(C(=O)c2c[nH]c3ccccc23)n1", "note": "[ITK]", "values": [{"measurement": "TGD (Tumor Growth Delay)", "setting": "[1]; at a tumor volume of 1,000 mm^3", "value": 16, "unit": "days"}, {"measurement": "TGI (Tumor Growth Inhibition)", "setting": "[1]; day 28, TGI=ΔT/ΔC×100%", "value": 51, "unit": "%"}, {"measurement": "net body weight loss", "setting": "[2]; 80 mg/kg i.p. once daily", "value": "no obvious net body weight loss"}, {"measurement": "TGD (Tumor Growth Delay)", "setting": "[2]; [4]", "value": 26, "unit": "days"}, {"measurement": "TGI (Tumor Growth Inhibition)", "setting": "[2]; 80 mg/kg i.p. once daily, day 22, TGI=ΔT/ΔC×100%", "value": 22, "unit": "%"}, {"measurement": "mice died", "setting": "[2]; [5]", "value": "1 out of 8"}, {"measurement": "net body weight loss", "setting": "[3]; 80 mg/kg i.p. once daily", "value": "no obvious net body weight loss"}, {"measurement": "TGD (Tumor Growth Delay)", "setting": "[3]; [4]", "value": 13, "unit": "days"}, {"measurement": "TGI (Tumor Growth Inhibition)", "setting": "[3]; 80 mg/kg i.p. once daily, day 33, TGI=ΔT/ΔC×100%", "value": 46, "unit": "%"}, {"measurement": "mice died", "setting": "[3]; [5]", "value": "1 out of 8"}]}]}
